Measured values as given in patent publication US12448393B2, “Use of novel compound, for preventing, improving or treating amyotrophic lateral sclerosis” (PRG S&TECH INC., priority 2019, dated 2025).
Entries after “also recorded” stand apart in the source; their conditions may differ.

How the values were obtained:
SOD1 [1] = target: SOD1 (Homo sapiens, UniProt P00441); experiment: Western blot / native gel analysis of SOD1 aggregation; type: cell-based
Protocol: (§1) Using RIPA buffer (50 mM Tris-Cl, pH 7.5, 150 mM NaCl, 1% NP-40, 0.1% SDS and […]) for SDS-PAGE and lysis buffer (50 mM Tris-Cl, pH 7.5, 150 mM NaCl, 0.3% NP-40) for Native-PAGE, proteins were extracted from cells. Samples were separated by the SDS-PAGE or the Native-PAGE and transferred to PVDF membrane. Blotted membrane was blocked with TBST buffer including 3% skim milk for 1 hour, and reacted with specific antibodies. The reacted antibodies were detected by ECL and X-ray film exposure. Antibodies used in the present disclosure are as follows: pan-SOD1 (GTX100554) was purchased from Genetex (California, USA). Misfolded SOD1-specific antibody (B8H10) was purchased from MediMabs (Montreal, Canada). Actin (sc-1616), GST (sc-138), and GFP (Green fluorescent protein; sc-8036) were purchased from Santa Cruz biotechnology (Santa Cruz, CA, USA). TDP-43 antibody (10782-2-AP) was purchased from Proteintech (Rosemont, IL, USA). Anti-FLAG (Sigma; F3165) was purchased from Sigma Aldrich (St, Louis, Mo, USA), and HRP-conjugated goat anti-mouse, goat anti-rabbit, and mouse anti-goat antibodies (Pierce, Thermo Fisher Scientific, Inc., Rockford, IL, USA) were used as secondary antibodies.
(§2) GFP-SOD1 (WT, G85R, G93A), non-tagged SOD1 (WT, A4V, G37R, G85R, G93A) and tdTomato-TDP43 expression vectors were purchased from Addgene (Cambridge, MA, USA). Transfection was performed using Jet-PEI reagent (JetPEI; Polyplus transfection, New York, NY, USA) according to the manufacturer's protocol. Briefly, vectors were mixed with JetPEI reagent in 150 mM NaCl buffer, and then mixture was reacted for 15 minutes. The mixture was added to cells in serum-free medium and reacted for 4 hours. After reaction, the cells were replaced with a culture medium supplemented with 10% FBS.

SOD1 [2] = experiment: as above; type: cell-based, human; conditions: for mutant SOD1 aggregation: FIGS. 3B and 3C
Protocol: as §1, §2

[3] = Pharmacokinetics (PK) analysis; type: in vivo; conditions: FIG. 8E
misfolded SOD1 [4] = target: misfolded SOD1 (Homo sapiens, UniProt P00441, G94A); experiment: Dot blot analysis of misfolded SOD1 in transfected cell lysates; type: cell-based; conditions: G93A-transfected cell lysates; FIG. 5E
Protocol: (§3) To detect misfolded SOD1 expression, cells transfected with SOD1 vector were treated with the compounds for 24 hours. After reaction, the cells were lysed with a lysis buffer without surfactant, and then cell lysate was fixed on a nitrocellulose membrane using a Bio-Dot SF Microfiltration apparatus (Bio-Rad Laboratories, Hercules, CA). In the case of peptide reaction, SOD1 recombinant proteins were reacted with the compounds for 1 hour, and then samples were loaded onto membrane. Each membrane was washed with TBS and blocked with 3% skim milk to prevent non specific reaction. After blocking, the membrane was reacted with the misfolded SOD1 or Actin antibody (1:8,000 in TBST including 1% skim milk) for 30 minutes, and then with a secondary antibody (goat anti-mouse IgG-horseradish peroxidase, 1:50,000 in 1% skim milk blocking buffer) for 30 minutes. Antibodies reacted to proteins were detected by ECL and X-ray film exposure. Actin was used as a loading control.

misfolded SOD1 [5] = experiment: as above; type: cell-based, human; conditions: lysates of cells transfected with WT- or mutant SOD1; FIG. 5D
Protocol: as §3

SOD1-G93A = target: T1, SOD1-G93A (Homo sapiens, UniProt P00441, G94A); experiment: Dot blot analysis of recombinant SOD1 reacted with compound; type: biochemical; conditions: FIG. 5F
T1 construct: GST (TEV site) (N); made in house; host or cells: Escherichia coli BL21 (DE3)
Protocol: To prepare recombinant proteins, human SOD1 (WT, A4V, G37R, G85R, G93A) was added to EcoRI and HindIII sites of pGEX-TEV vector, an improved vector made by adding a TEV protease cleavage site to pGEX-4T1 (Invitrogen). The recombinant proteins were expressed as GST-fusion proteins in Escherichia coli (E. coli) strain BL21 (DE3). The proteins were purified by glutathione-affinity chromatography.
as §3

Sequence of SOD1 (Homo sapiens, UniProt P00441) (P00441 2-154): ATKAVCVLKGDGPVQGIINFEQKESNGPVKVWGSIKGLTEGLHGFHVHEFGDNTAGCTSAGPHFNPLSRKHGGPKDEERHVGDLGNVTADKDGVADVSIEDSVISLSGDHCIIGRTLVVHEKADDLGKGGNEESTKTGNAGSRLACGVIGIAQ
T1 sequence (P00441 whole entry G94A): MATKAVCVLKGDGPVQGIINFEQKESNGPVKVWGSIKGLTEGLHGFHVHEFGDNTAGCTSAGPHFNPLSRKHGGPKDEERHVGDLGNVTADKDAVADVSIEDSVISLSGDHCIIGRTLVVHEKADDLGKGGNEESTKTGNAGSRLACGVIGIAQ
Sequence of misfolded SOD1 (Homo sapiens, UniProt P00441, G94A) (P00441 2-154 G94A): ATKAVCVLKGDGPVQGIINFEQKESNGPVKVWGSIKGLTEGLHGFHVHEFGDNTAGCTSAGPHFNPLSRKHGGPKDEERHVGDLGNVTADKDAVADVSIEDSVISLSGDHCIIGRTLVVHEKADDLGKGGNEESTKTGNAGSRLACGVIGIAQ

Compound: COc1cc(/C=C/C(=O)O[C@H]2Cc3cc4ccc(=O)oc4cc3OC2(C)C)ccc1O [PRG-A-01, (S)-8,8-dimethyl-2-oxo-7,8-dihydro-2H,6H-pyrano[3,2-g]chromen-7-yl (E)-3-(4-hydroxy-3-methoxyphenyl) acrylate]
- SOD1 aggregation and TDP43 aggregation, native gel analysis (SOD1 [1]; TDP-43 overexpression, FIG. 5B): reduced; also recorded: decreased
- multimer bands of SOD1 and TDP-43, cross-linking experiment (SOD1 [1]; glutaraldehyde cross-linking, FIG. 5C): blocks multimer formation of SOD1; also recorded: weakened
- mutant SOD1 aggregation (SOD1 [2]): inhibits SOD1 aggregation
- mutant SOD1 aggregation (SOD1 [2]; listed as SLC-B036): blocking mutant SOD1 aggregation in a dose-dependent manner
- Western Blot (SOD1 [2]; Table 1, effect on SOD1 aggregation, native / non-SDS-PAGE gel): Effect ○
- time to disappearance in body / blood [3]: ≤ 30 min
- misfolded SOD1, dot blot, according to doses (misfolded SOD1 [4]): dose-dependent decrease in misfolded SOD1
- misfolded SOD1, dot blot (misfolded SOD1 [5]): reduces misfolding formation of SOD1; also recorded: band intensity clearly decreased
- recognition of mutant SOD1 by misfolding-specific antibody (SOD1-G93A): inhibits misfolding of mutant SOD1; also recorded: antibody specific for misfolding did not recognize mutant SOD1
